# Data: ChEMBL document CHEMBL1158742, “Production of 8-demethylgeldanamycin and 4,5-epoxy-8-demethylgeldanamycin from a recombinant strain of Streptomyces hygroscopicus” (J Nat Prod, 2005)
# pIC50: −log10 of the molar value.
# Tested on: SK-BR-3
# Test: Cytotoxicity against human SKBR3 cells after 72 hrs by celltiter-Glo assay
# Format: functional, cell-based
# Settings: SK-BR-3, 72 h
row,SMILES,pIC50
1,COC1=C2C[C@@H](C)C[C@H](OC)[C@H](O)[C@@H](C)/C=C/[C@H](OC(N)=O)[C@@H](OC)[C@@H]3O[C@@H]3/C=C(\C)C(=O)NC(=CC1=O)C2=O,6.55
2,COC1=C2C[C@@H](C)C[C@H](OC)[C@H](O)[C@@H](C)/C=C/[C@H](OC(N)=O)[C@@H](OC)/C=C\C=C(/C)C(=O)NC(=CC1=O)C2=O,6.32
3,C=CCNC1=C2C[C@@H](C)C[C@H](OC)[C@H](O)[C@@H](C)/C=C(\C)[C@H](OC(N)=O)[C@@H](OC)/C=C\C=C(/C)C(=O)NC(=CC1=O)C2=O [TANESPIMYCIN],7.57
